# In patent publication US8609870B2, “Treating various disorders using TrkB agonists” (Emory University, priority 2008, dated 2013):
# Columns and labels:
# TrkB [1] = assay: TrkB activation in cortical neurons from knockout mouse pups; type: cell-based
# Protocol: To determine whether an identified active compound selectively activates TrkB receptor and prevents neuronal cell death, cortical neurons are prepared from homozygous pups of TrkB +/− mice, which are mated to the same genotype. The activation of TrkB and down stream indicators of TrkB activation, such as Capase-3, are monitored. To further assess whether an identified active compound blocks neuronal apoptosis in a TrkB dependent manner, cortical neurons are prepared from homozygous pups of […], which are mated to the same genotype. Again, the activation of TrkB and down stream indicators of TrkB activation, such as Capase-3, are monitored.
# Additionally, the spontaneous caspase-3 activation in […] was suppressed by deoxygedunin.
# C57BL/6J mice = assay: Tone-shock fear conditioning model; type: in vivo, mouse
# Protocol: Following a two-day habituation to testing context, wild-type C57Bl/6J mice (N=28, male, 8-10 weeks old) were fear conditioned in eight identical startle response systems (SR-LAB, SDI) consisting of a nonrestrictive Plexiglas cylinder, 5.5 cm in diameter and 13 cm long, mounted on a Plexiglas platform which was located in a ventilated, sound-attenuated chamber. One hour prior to fear conditioning, mice received […] (N=14, 5 mg/kg, i.p.) or vehicle (N=14, 17% DMSO in PBS). Mice then received 5 tone—footshock pairings, with 30 second 12 kHz, 85 dB tones which co-terminated with the footshocks (intensity of 0.5 mA, 0.5 second) with a 5 minute intertrial interval (ITI), after which they were returned to their homecage. 24 and 48 hrs after training, the mice were tested for freezing in rodent modular test chambers with an inside area of 30.5 cm×24.1 cm×21.0 cm. Three minutes after placing the mouse in the test chamber, fifteen 30 second conditioned stimulus (CS) tones with an ITI of 1.5 min were delivered through a high-frequency speaker attached to the side of each chamber. Percentage time spent freezing during the CS presentations was calculated for each mouse using FreezeFrame (Product Number: ACT-100) (Coulbourn Instruments, Whitehall, Pa.).
# To determine whether deoxygeduning would enhance learning in a whole animal model of learning and memory, in which BDNF-dependent TrkB activation was required, a tone-shock fear conditioning model was developed (see FIG. 26). Following habituation to the testing context, 28 adult wild-type, C57BL/6J mice were given systemic injections of deoxygedunin (N=14, 5 mg/kg, i.p.) or vehicle (N=14) 1 hour prior to being subjected to the tone-shock fear conditioning model. […] Mice were then tested, with no additional drug treatment, for cue-conditioned fear in the previously habituated context on the two days following fear acquisition. […] To further explore these effects, individual animals' freezing levels throughout the tone-fear testing sessions were examined. […]
# C57BL/6 mice = assay: KA-induced apoptosis in hippocampus (TUNEL staining); type: in vivo, mouse; settings: 5 mg/kg i.p. followed by 20 mg/kg KA, 5 days
# TrkB [2] = molecular target: T1, TrkB (Mus musculus, UniProt P15209); assay: TrkB activation in BDNF cortex conditional knockout mice; type: in vivo; settings: 5 mg/kg i.p., sacrificed at 4 hours; wild-type and BDNF −/− mice
# T1 construct: Brain lysates were prepared and analyzed by immunoblotting; from tissue; host or cells: mouse brain
# Description: The Cortex-Specific Cre mouse line was previously described as “transgenic line C” (Chhatwal et al., Gene Ther. 14, 575-583 (2007)). Briefly, coding sequence for Cre-recombinase (Cre-IRES-DsRed2) was placed downstream of a 3 kb cholecystokinin (CCK) promoter, linearized, purified, and microinjected into the pronuclei of one-cell C57/BL6 embryos, which were then implanted into pseudopregnant C57/BL6 females. Following verification of gene expression in the different transgenic lines (Chhatwal et al., Nat. Neurosci. 9, 870-872 (2006)), the cortex-specific “line C” was crossed to a floxed-stop lacZ reporter mouse line (Soriano, Nat. Genet., 21, 70-71 (1999)) as well as the floxed BDNF mouse line (Rios et al., Mol. Endocrinol., 15, 1748-1757 (2001)). Region specific Cre gene expression and BDNF deletion were confirmed with in situ hybridization, x-gal staining for β-galactosidase expression, and Western blot for BDNF protein levels.
# To examine whether deoxygedunin activating TrkB involved endogenous BDNF, BDNF conditional knockout mice with BDNF gene deletion limited to cortex (thus allowing normal development) were used. Deoxygedunin (5 mg/kg) was intraperitoneally injected into the BDNF cortex conditional knockout mice and the mice were sacrificed at 4 hours. […]
# T1 sequence (P15209 32-821): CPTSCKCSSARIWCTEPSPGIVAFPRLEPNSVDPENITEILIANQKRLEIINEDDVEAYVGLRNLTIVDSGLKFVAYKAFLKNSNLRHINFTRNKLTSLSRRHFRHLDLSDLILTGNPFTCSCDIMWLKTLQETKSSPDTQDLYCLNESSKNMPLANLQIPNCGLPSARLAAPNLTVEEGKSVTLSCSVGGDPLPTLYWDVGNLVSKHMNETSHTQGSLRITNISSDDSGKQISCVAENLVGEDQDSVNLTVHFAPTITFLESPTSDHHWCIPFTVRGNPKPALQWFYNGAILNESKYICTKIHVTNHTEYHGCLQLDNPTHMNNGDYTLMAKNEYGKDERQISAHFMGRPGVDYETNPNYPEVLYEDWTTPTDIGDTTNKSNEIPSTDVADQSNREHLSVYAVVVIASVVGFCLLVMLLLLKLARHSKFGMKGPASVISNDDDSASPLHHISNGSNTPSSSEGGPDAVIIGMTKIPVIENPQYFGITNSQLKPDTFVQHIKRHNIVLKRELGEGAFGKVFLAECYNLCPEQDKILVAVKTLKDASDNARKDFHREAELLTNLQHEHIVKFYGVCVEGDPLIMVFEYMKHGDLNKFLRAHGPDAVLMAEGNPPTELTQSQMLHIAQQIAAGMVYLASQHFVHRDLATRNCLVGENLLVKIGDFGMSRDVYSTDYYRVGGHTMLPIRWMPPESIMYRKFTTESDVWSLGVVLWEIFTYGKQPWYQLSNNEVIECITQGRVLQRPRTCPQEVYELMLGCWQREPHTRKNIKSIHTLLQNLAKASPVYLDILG
structure (smiles),measurement,setting,value
CC(=O)O[C@@H]1C[C@H]2C(C)(C)C(=O)C=C[C@]2(C)[C@H]2CC[C@]3(C)C(=CC(=O)O[C@H]3c3ccoc3)[C@@]21C [deoxygedunin],TrkB activation,TrkB [1]; TrkB −/− cortical neurons,not TrkB −/− neurons
same,TrkB activation,TrkB [1]; both wild-type and TrkC knockout neurons,strongly provoked TrkB
same,TrkB activation,TrkB [1]; wild-type cortical neurons (pups of TrkB +/− mice),specifically activated TrkB
same,shock reactivity during fear acquisition training,"C57BL/6J mice; 5 mg/kg i.p. 1 hour prior to conditioning, versus vehicle",no difference
same,average level of tone-dependent conditioned freezing versus vehicle,"C57BL/6J mice; 5 mg/kg i.p. 1 hour prior to training, tested on the two following days",significantly different on both testing days
same,increase in the level of freezing during the first set of CS trials,"C57BL/6J mice; 5 mg/kg i.p., each testing day, versus vehicle",2-3 fold
same,KA provoked apoptosis in the hippocampus (TUNEL staining),C57BL/6 mice,diminished
same,decrease of KA induced apoptosis in hippocampus,C57BL/6 mice,60%
same,TrkB activation,TrkB [2],TrkB activation occurred in both wild-type and BDNF −/− mice
